Patent US20150216992A1, “EXTENDED RELEASE COMPOSITIONS OF AN AMINOALKYL NITRATE” (CARDIOLYNX AG, priority 2012, published 2015)

Tests used:
L-NAME treated SHR rats = assay: Rat model for pharmacological activity using blood pressure as a marker; assay type: in vivo; details: AEN tosylate 0.5 mg/kg/h infused, valsartan 5 mg/kg single daily dose; for effect on blood pressure: after 1 and 2 weeks
Experimental: FIG. 5: Pharmacological activity of AEN tosylate, valsartan and AEN tosylate/valsartan combination on blood pressure in L-NAME treated SHR rats.
Column 1: AEN tosylate (0.5 mg/kg/h), column 2: valsartan (single dose 5 mg/kg), column 3: AEN tosylate (0.5 mg/kg/h) plus valsartan (single daily dose 5 mg/kg).
Hatched bars: blood pressure lowering versus control after 1 week, black solid bars after 2 weeks. Vertical axis: reduction in blood pressure in mm Hg
SHR rats were treated with L-NAME to increase blood pressure. Following treatment with L-NAME rats were treated continuously for two weeks with either AEN tosylate (1) with a continuously infused dose (using an osmotic pump) of 0.5 mg/kg/h (column 1 in FIG. 5), valsartan at 5 mg/kg, single daily dose (column 2 in FIG. 5) or AEN tosylate plus valsartan (combined doses, group 3 in FIG. 5). Effects on blood pressure were measured after 1 week and after 2 weeks of treatment.

[1] = in vivo; cited from earlier work
[2] = in vivo; cited from earlier work; remark: listed apart in the source

Structure (SMILES) | effect on blood pressure (L-NAME treated SHR rats) | NO-tolerance induction (L-NAME treated SHR rats; two weeks continuous treatment) | half-live [1] | development of nitrate tolerance [2]
Cc1ccc(S(=O)(=O)O)cc1.NCCO[N+](=O)[O-] [AEN tosylate, 2-aminoethylnitrate (aen) tosylate] | continued pharmacological activity | without showing signs of NO-tolerance induction |  | 
NCCO[N+](=O)[O-] [AEN, 2-aminoethyl nitrate] |  |  | approx. 2 hours | no development of nitrate tolerance
CCCCC(=O)N(Cc1ccc(-c2ccccc2-c2nnn[nH]2)cc1)[C@H](C(=O)O)C(C)C [valsartan] | lowered blood pressure |  |  | 
